What was measured:
[1] = tested on: ATF4; test: ATF4 expression inhibition assay (ATF4 luciferase reporter); type: cell-based; conditions: Homo sapiens, HEK-293T; HEK293T cells carrying the ATF4 luciferase reporter, 100 nM thapsigargin (Tg), 3 hours; read-out: ATF4 inhbition IC50
Procedure: The ATF4 reporter was prepared by fusing the human full length 5′UTR of ATF4 (NCBI Accession No. BC022088.2) upstream of the firefly luciferase coding sequence lacking the initiator methionine. The fused sequence was cloned into pLenti-EF1a-C-Myc-DDK-IRES-Puro cloning vector (Origen # PS 100085) using standard methods. Virus production was carried out by using Lenti-X™ Packaging Single Shots Protocol (Clonetech #631276). Viral particles were used to transduce HEK293T cells (ATCC # CRL-3216, ATCC Manassas, Va.), which were subsequently selected with puromycin to generate stable cell line. Cells were maintained at 37° C. and 5% CO2 in DMEM-F12 (Hyclone # SH30023.02) supplemented with 10% heat-inactivated fetal bovine serum (Gibco #16000-044), 2 mM L-glutamine (Gibco #25030-081), 100 U/ml penicillin, and 100 μg/ml streptomycin (Gibco #15140-122).
HEK293T cells carrying the ATF4 luciferase reporter were plated on 96-well plates (Nunc) at 10,000 cells per well. Cells were treated two days after seeding with 100 nM thapsigargin (Tg) (Sigma-Aldrich # T9033) in the presence of different concentrations of selected compounds ranging from 1 nM to 10 μM. Cells without treatment or cells treated with Tg alone were used as controls. Assay plates containing cells were incubated for 3 hours at 37° C.
Luciferase reactions were performed using Luciferase Assay System (Promega # E1501) as specified by the manufacturer. Luminescence was read with an integration time of 1 s and a gain of 110 using a Cytation-5 multi-mode microplate reader (BioTek). Relative luminescence units were normalized to Tg treatment (0% inhibition) and untreated cells (100% inhibition) and the percentage of ATF4 inhibition was calculated.
Accordingly, inhibition of ATF4 expression as a result of the test compound indicates suppression of the ISR pathway.

[2] = tested on: Chinese hamster ovary (CHO) cells; test: Protein translation assay (puromycin labelling, western blot); type: cell-based; conditions: 2 hours, media alone = 100%; for activity at 1 µM: Cricetulus griseus, unstressed CHO cells (without Tg), 1 μM test compound, read-out: % Protein synthesis relative to untreated (1 μM test compound); for % Recovery of protein synthesis (1 μM test compound): stressed CHO cells, 300 nM Tg, Tg alone = 0%
Procedure: Chinese hamster ovary (CHO) cells were maintained at 37° C. and 5% C02 in Dulbecco's Modified Eagle's Media (DMEM) supplemented with 10% fetal bovine serum, 2 mM L-glutamine, 100 U/ml penicillin, and 100 μg/ml streptomycin. After reaching 80% of confluence, cells were detached and seeded on 6 well plates in complete media, allowed to recover overnight and treated for 2 hours with 1 μM of the test compound (to assess protein synthesis levels in unstressed condition), or for 2 hours with 300 nM Tg in the presence of 1 μM of the test compound (to assess the recovery of protein synthesis in a stressed condition). Cells with Tg alone were used as controls.
After the 2 hours treatments, media were replaced by adding 10 μg/ml puromycin (Sigma Aldrich # P8833) in complete media for 30 min. Media were removed and cells were lysed with SDS-PAGE lysis buffer. Lysates were transferred to 1.5 ml tubes and sonicated for 3 min and total protein amount were quantified using BCA Protein Assay Kit (Pierce). Equal amount of protein (30 μg) was loaded on SDS-PAGE gels. Proteins were transferred onto 0.2 μm PVDF membranes (BioRad) and probed with primary antibodies diluted in Tris-buffered saline supplemented with 0.1% Tween 20 (Merck # S6996184 505) and 3% bovine serum albumin (Rockland # BSA-50).
Puromycin (12D10) (Merck # MABE343) and β-actin (Sigma Aldrich # A5441) antibodies were used as primary antibody. A HRP-conjugated secondary antibody (Rockland) was employed to detect immune-reactive bands using enhanced chemiluminescence (ECL Western Blotting Substrate, Pierce). Quantification of protein bands was done by densitometry using ImageJ software.
Percent increase of protein synthesis in unstressed cells (without Tg treatment) in the presence of media alone or certain test compounds is shown in Table 3. The percentage levels were normalized to the media alone condition, which correspond to 100% protein synthesis.
Percent recovery of protein synthesis in stressed cells (with Tg treatment) due to the test compounds at 1 μM is also shown in Table 3. The levels were normalized to the media alone and Tg alone conditions, which correspond to 100% and 0% respectively.

IC50 [1] | SMILES | activity at 1 µM [2] | % Recovery of protein synthesis (1 μM test compound) [2]
< 1000 nM | O=C(COc1ccc(Cl)c(F)c1)NC1CCC(CNC(=O)c2cc3cc(Cl)ccc3o2)C1 (stereo not shown) [Compound 88, 5-chloro-N-((3-(2-(4-chloro-3-fluorophenoxy)acetamido)cyclopentyl)methyl)benzofuran-2-carboxamide] | 76.4% | 
217 nM | O=C(COc1ccc(Cl)c(F)c1)N[C@H]1CC[C@H](NC(=O)c2cc3cc(Cl)ccc3o2)C1 [Compound 14, 5-chloro-N-((1S,3S)-3-(2-(4-chloro-3-fluorophenoxy)acetamido)cyclopentyl)benzofuran-2-carboxamide] | 65.9% | 
> 100 nM | O=C(COc1ccc(Cl)c(F)c1)NC1CCN(CC(O)COc2ccc(Cl)c(F)c2)C1 (stereo not shown) [Compound 99, 2-(4-chloro-3-fluorophenoxy)-N-(1-(3-(4-chloro-3-fluorophenoxy)-2-hydroxypropyl)pyrrolidin-3-yl)acetamide] | 67.7% | 0.00%
134 nM | O=C(COc1ccc(Cl)c(F)c1)N[C@H]1CC[C@H](NC(=O)c2ccc3cc(Cl)ccc3n2)C1 [Compound 16, 6-chloro-N-((1S,3S)-3-(2-(4-chloro-3-fluorophenoxy)acetamido)cyclopentyl)quinoline-2-carboxamide] | 95.4% | 
> 100 nM | O=C(COc1ccc(Cl)c(F)c1)N[C@@H]1CC[C@H](NC(=O)c2ccc3cc(Cl)ccc3n2)C1 [Compound 19, 6-chloro-N-((1S,3R)-3-(2-(4-chloro-3-fluorophenoxy)acetamido)cyclopentyl)quinoline-2-carboxamide] | 76.1% | 
> 1000 nM | O=C(NCC1CCC(NCC(O)COc2ccc(Cl)c(F)c2)C1)c1ccc2cc(Cl)ccc2n1 (stereo not shown) [Compound 34, 6-chloro-N-((3-((3-(4-chloro-3-fluorophenoxy)-2-hydroxypropyl)amino)cyclopentyl)methyl)quinoline-2-carboxamide] | 166% | 122.6%
< 1000 nM | O=C(COc1ccc(Cl)c(F)c1)NC1CCC(CNC(=O)c2ccc3cc(Cl)ccc3n2)C1 (stereo not shown) [Compound 87, 6-chloro-N-((3-(2-(4-chloro-3-fluorophenoxy)acetamido)cyclopentyl)methyl)quinoline-2-carboxamide] | 83.9% | 
> 100 nM | O=C(N[C@H]1CC[C@H](NCC(O)COc2ccc(Cl)c(F)c2)C1)c1ccc2cc(Cl)ccc2n1 (stereo partly drawn) [Compound 13, 6-chloro-N-((1S,3S)-3-((3-(4-chloro-3-fluorophenoxy)-2-hydroxypropyl)amino)cyclopentyl)quinoline-2-carboxamide] | 288% | 161.6%
2.8 nM | O=C(COc1ccc(Cl)c(F)c1)NCC1CCN(NC(=O)c2ccc3cc(Cl)ccc3n2)C1 (stereo not shown) [Compound 93, 6-chloro-N-(3-((2-(4-chloro-3-fluorophenoxy)acetamido)methyl)pyrrolidin-1-yl)quinoline-2-carboxamide] | 102% | 51.4%
> 100 nM | O=C(NC1CCN(CCCOc2ccc(Cl)c(F)c2)C1)c1cc2cc(Cl)ccc2o1 (stereo not shown) [Compound 101, 5-chloro-N-(1-(3-(4-chloro-3-fluorophenoxy)propyl)pyrrolidin-3-yl)benzofuran-2-carboxamide] | 93.2% | 86.10%
249 nM | O=C(N[C@H]1CC[C@@H](NCC(O)COc2ccc(Cl)c(F)c2)C1)c1ccc2cc(Cl)ccc2n1 (stereo partly drawn) [Compound 3, 6-chloro-N-((1S,3R)-3-((3-(4-chloro-3-fluorophenoxy)-2-hydroxypropyl)amino)cyclopentyl)quinoline-2-carboxamide] | 176% | 286%
> 1000 nM | O=C(NC1CCC(NC[C@@H](O)COc2ccc(Cl)c(F)c2)C1)c1cc2cc(Cl)ccc2o1 (stereo partly drawn) [Compound 82, 5-chloro-N-(3-(((R)-3-(4-chloro-3-fluorophenoxy)-2-hydroxypropyl)amino)cyclopentyl)benzofuran-2-carboxamide] | 160% | 176.4%
3.58 nM | O=C(COc1ccc(Cl)c(F)c1)NCC1CCN(NC(=O)c2cc3cc(Cl)ccc3o2)C1 (stereo not shown) [Compound 12, 5-chloro-N-(3-((2-(4-chloro-3-fluorophenoxy)acetamido)methyl)pyrrolidin-1-yl)benzofuran-2-carboxamide] | 97.7% | 13%
> 100 nM | O=C(COc1ccc(Cl)c(F)c1)NCC1CCN(CC(O)COc2ccc(Cl)c(F)c2)C1 (stereo not shown) [Compound 7, 2-(4-chloro-3-fluorophenoxy)-N-((1-(3-(4-chloro-3-fluorophenoxy)-2-hydroxypropyl)pyrrolidin-3-yl)methyl)acetamide] | 122% | 
57.8 nM | O=C(NC1CC[C@H](NC[C@@H](O)COc2ccc(Cl)c(F)c2)C1)c1cc2cc(Cl)ccc2o1 (stereo partly drawn) [Compound 90, 5-chloro-N-((3S)-3-(((R)-3-(4-chloro-3-fluorophenoxy)-2-hydroxypropyl)amino)cyclopentyl)benzofuran-2-carboxamide] | 210% | 269.7%
856 nM | O=C(COc1ccc(Cl)c(F)c1)N[C@H]1CC[C@H](NC(=O)COc2ccc(Cl)c(F)c2)C1 [Compound 1, N,N′-((1S,3S)-cyclopentane-1,3-diyl)bis(2-(4-chloro-3-fluorophenoxy)acetamide)] | 46.9% | 
25 nM | O=C(COc1ccc(Cl)c(F)c1)NC[C@H]1CCN(NC(=O)c2cc3cc(Cl)ccc3o2)C1 [Compound 97, (R)-5-chloro-N-(3-((2-(4-chloro-3-fluorophenoxy)acetamido)methyl)pyrrolidin-1-yl)benzofuran-2-carboxamide] | 109% | 
< 1000 nM | O=C(N[C@@H]1CC[C@@H](NC[C@@H](O)COc2ccc(Cl)c(F)c2)C1)c1cc2cc(Cl)ccc2o1 [Compound 95, 5-chloro-N-((1R,3R)-3-(((R)-3-(4-chloro-3-fluorophenoxy)-2-hydroxypropyl)amino)cyclopentyl)benzofuran-2-carboxamide] | 186% | 170.5%
4.97 nM | O=C(COc1ccc(Cl)c(F)c1)NC[C@@H]1CCN(NC(=O)c2cc3cc(Cl)ccc3o2)C1 [Compound 96, (S)-5-chloro-N-(3-((2-(4-chloro-3-fluorophenoxy)acetamido)methyl)pyrrolidin-1-yl)benzofuran-2-carboxamide] | 110% | 24.5%
> 100 nM | O=C(NCC1CCN(C[C@@H](O)COc2ccc(Cl)c(F)c2)C1)c1ccc2cc(Cl)ccc2n1 (stereo partly drawn) [Compound 80, 6-chloro-N-((1-((R)-3-(4-chloro-3-fluorophenoxy)-2-hydroxypropyl)pyrrolidin-3-yl)methyl)quinoline-2-carboxamide] | 153% | 23.9%

— patent publication US20200270232A1, “INHIBITORS OF INTEGRATED STRESS RESPONSE PATHWAY” (Praxis Biotech LLC, priority 2019, published 2020)
